The values that follow come from patent publication US9365540B2, “Benzimidazole derivatives as MCH receptor antagonists” (Takeda Pharmaceutical Company Limited, priority 2012, dated 2016).

Structures can show the parent of a compound that is named as a salt.

Test [1] addresses T1, human MCH receptor 1 (MCHR1) (Homo sapiens, UniProt Q99705).
T1 construct: expressed in transfected cells; host or cells: CHO cell clone 57 (membrane fraction)
Nature of the test: human MCH receptor 1 (MCHR1) competitive binding assay with [125I]-MCH(4-19). To be noted: test compound 0.1 μM, human MCHR1-expressing CHO cell membrane fraction, read-out: Binding inhibition rate % (0.1 μM). In short, it runs like this:
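Membranes from CHO cells expressing human MCHR1 incubated with [125I]-MCH(4-19) and test compound in 20 mM Tris-HCl pH 7.5/5 mM EDTA with protease inhibitors, 1 hr at room temperature. Bound radioactivity collected on PEI-treated GF/C filters; % inhibition at 0.1 μM compound, nonspecific binding set with cold MCH(1-19).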

Another test addresses T2, human MCHR1 (Homo sapiens, UniProt Q99705).
T2 construct: expressed in transfected cells; host or cells: CHO dhfr- cells, clone #4
Nature of the test: MCH receptor 1 antagonistic activity, Ca2+ mobilization assay. Type of test: cell-based. The conditions noted are these: CHO, test compound 0.1 μM; human MCHR1-expressing CHO cells (clone #4); ligand MCH(4-19) 2 nM; read-out: Inhibitory rate % (0.1 μM). In short, it runs like this: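 CHO dhfr− cells stably expressing human MCHR1 (clone #4) were used in a fluorometric Ca2+ mobilization assay. Test compounds were run at 0.1 μM, with antagonism expressed as percent inhibition.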

The subject of test [2] is male diet-induced obese F344/Jcl rats. Put plainly: Anorectic effect in male diet-induced obese F344/Jcl rats. Type of test: in vivo, rat. To be noted: 5 mg/mL suspension at 2 mL/kg, two administrations, food intake for 2 days vs control group; for inhibition in vivo at 5000 µg/mL, 10 mg/kg: Rattus norvegicus, po, 48 h, read-out: Food intake suppression rate (%). As to the method:
Evaluation of Anorectic Effect Using Male Diet-Induced Obese F344/Jcl Rats
Male diet-induced obese F344/Jcl rats (44-50 weeks old) fed with a high-fat diet (D12451: Research Diets) from 5 weeks old were used. From before the start of experiment, the rats were singly housed, given a powder high-fat diet (D12451M: Research Diets), and habituated to oral administration with tap water. The food intake from the evening of the day before the start of experiment to the next morning was measured, and the rats were grouped based on both the food intake and the body weight of the previous day. In the evening of the day of the start of experiment and the next day, 0.5% methylcellulose solution was orally administered to the control group, and 0.5% methylcellulose suspension (5 mg/mL) of the test compound was orally administered to the compound administration group at 2 mL/kg (6 per group for both control group and compound administration group). The food intake for 2 days from the initial administration was measured. The food intake inhibition rate of each compound administration group to the control group was calculated.

T1 sequence (Q99705 whole entry): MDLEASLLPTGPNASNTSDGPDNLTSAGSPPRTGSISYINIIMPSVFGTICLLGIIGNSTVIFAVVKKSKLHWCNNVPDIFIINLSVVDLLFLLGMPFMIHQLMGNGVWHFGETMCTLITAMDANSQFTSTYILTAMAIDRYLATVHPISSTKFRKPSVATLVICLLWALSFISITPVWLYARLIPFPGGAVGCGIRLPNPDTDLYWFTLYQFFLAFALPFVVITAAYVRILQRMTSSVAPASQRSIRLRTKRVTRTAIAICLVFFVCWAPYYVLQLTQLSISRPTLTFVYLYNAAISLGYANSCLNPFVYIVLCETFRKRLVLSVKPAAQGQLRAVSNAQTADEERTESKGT
T2 sequence (Q99705 whole entry): as above

On to `Cn1c(C2CC2)nc2ccc(-n3ccc(OCc4ccccc4)cc3=O)cc21` [Example 9, 4-(Benzyloxy)-1-(2-cyclopropyl-1-methyl-1H-benzimidazol-6-yl)pyridin-2(1H)-one], for which the inhibition at 0.1 µM came to 72% in test [1] and 100% on human MCHR1. Besides, in test [2], the inhibition in vivo at 5000 µg/mL, 10 mg/kg is 14.8%.
The corresponding values for `Cn1c(C2CC2)nc2ccc(-n3ccc(OCc4ccc(Cl)cc4)cc3=O)cc21` [Example 10, 4-((4-Chlorobenzyl)oxy)-1-(2-cyclopropyl-1-methyl-1H-benzimidazol-6-yl)pyridin-2(1H)-one] are 89%, 99% and 58.1%.
Regarding `Cn1c(CC2CC2)nc2ccc(-n3ccc(OCc4ccc(F)cc4)cc3=O)cc21` [Example 15, 1-(2-(Cyclopropylmethyl)-1-methyl-1H-benzimidazol-6-yl)-4-((4-fluorobenzyl)oxy)pyridin-2(1H)-one], the inhibition at 0.1 µM in test [1] worked out at 53%; at human MCHR1, 90%. Moreover, the inhibition in vivo at 5000 µg/mL, 10 mg/kg in test [2] was found to be 45.4%.
On to `CCc1nc2ccc(-n3ccc(OCc4ccc(Cl)s4)cc3=O)cc2n1C` [Example 49, 4-[(5-Chlorothiophen-2-yl)methoxy]-1-(2-ethyl-1-methyl-1H-benzimidazol-6-yl)pyridin-2(1H)-one], for which, in test [2], the inhibition in vivo at 5000 µg/mL, 10 mg/kg was 29.3%.
The same measure, in the same setting: for `CCc1nc2ccc(-n3ccc(OCc4csc(Cl)c4)cc3=O)cc2n1C` [Example 51, 4-[(5-Chlorothiophen-3-yl)methoxy]-1-(2-ethyl-1-methyl-1H-benzimidazol-6-yl)pyridin-2(1H)-one] the value was 50%.
With `Cn1c(C2CC2)nc2ccc(-n3ccc(OCc4ccc(Cl)c(F)c4)cc3=O)cc21` [Example 131, 4-((4-Chloro-3-fluorobenzyl)oxy)-1-(2-cyclopropyl-1-methyl-1H-benzimidazol-6-yl)pyridin-2(1H)-one], the inhibition at 0.1 µM in test [1] turned out to be 78%. For the same molecule, in test [2], the inhibition in vivo at 5000 µg/mL, 10 mg/kg turned out to be 44.3%.
`Cc1c(C2CC2)nc2ccc(-n3ccc(OCc4ccc(C(F)(F)F)s4)cc3=O)cn12` [Example 158, 1-(2-Cyclopropyl-3-methylimidazo[1,2-a]pyridin-6-yl)-4-((5-(trifluoromethyl)thiophen-2-yl)methoxy)pyridin-2(1H)-one]: the inhibition at 0.1 µM in test [1] turned out to be 83%; on human MCHR1 it was 105%. Moreover, the inhibition in vivo at 5000 µg/mL, 10 mg/kg in test [2] worked out at 20.3%.
As for `Cc1c(C2CC2)nc2ccc(-n3ccc(OCc4ccc(C(F)(F)F)s4)cc3=O)cn12` [Example 160, 1-(2-Cyclopropyl-3-methylimidazo[1,2-a]pyridin-6-yl)-4-((5-(trifluoromethyl)thiophen-2-yl)methoxy)pyridin-2(1H)-one hydrochloride], the “Food intake suppression rate (%)” value in test [2] (oral, hydrochloride) was 22.7%.
In the case of `Cn1c(C2CC2)nc2ccc(-n3ccc(OCc4ccc(C(F)(F)F)s4)cc3=O)cc21` [Example 242, 1-(2-Cyclopropyl-1-methyl-1H-benzimidazol-6-yl)-4-((5-(trifluoromethyl)-2-thienyl)methoxy)pyridin-2(1H)-one hydrochloride], in test [2], the inhibition in vivo at 5000 µg/mL, 10 mg/kg stood at 17.4%.
As to `Cn1c(C2CC2)nc2ccc(-n3ccc(OCc4csc(C(F)(F)F)c4)cc3=O)cc21` [Example 252, 1-(2-Cyclopropyl-1-methyl-1H-benzimidazol-6-yl)-4-((5-(trifluoromethyl)-3-thienyl)methoxy)pyridin-2(1H)-one], the inhibition at 0.1 µM in test [1] amounted to 66%; on human MCHR1, 85%. Further, the inhibition in vivo at 5000 µg/mL, 10 mg/kg in test [2] was found to be 30.8%.
The corresponding values for `Cn1c(C2CC2)nc2ccc(-n3ccc(OCc4csc(C(F)(F)F)n4)cc3=O)cc21` [Example 266, 1-(2-Cyclopropyl-1-methyl-1H-benzimidazol-6-yl)-4-((2-(trifluoromethyl)-1,3-thiazol-4-yl)methoxy)pyridin-2(1H)-one] are 50%, 73% and 20%.
As to `Cn1c(C2CC2)nc2ccc(-n3ccc(OCc4cc(C(F)(F)F)cs4)cc3=O)cc21` [Example 275, 1-(2-Cyclopropyl-1-methyl-1H-benzimidazol-6-yl)-4-((4-(trifluoromethyl)-2-thienyl)methoxy)pyridin-2(1H)-one], the inhibition at 0.1 µM in test [1] was 75%; on human MCHR1, 89%. The inhibition in vivo at 5000 µg/mL, 10 mg/kg in test [2] was 50.1%.
Turning to `Cn1c(C2CC2)nc2ccc(-n3ccc(OCc4nc(C(F)F)cs4)cc3=O)cc21` [Example 283, 1-(2-Cyclopropyl-1-methyl-1H-benzimidazol-6-yl)-4-((4-(difluoromethyl)-1,3-thiazol-2-yl)methoxy)pyridin-2(1H)-one], the inhibition at 0.1 µM in test [1] was 56%; on human MCHR1 it was 99%.
The corresponding values for `CCc1nc2ccc(-n3ccc(OCc4nc(C(F)F)cs4)cc3=O)cc2n1C` [Example 284, 4-((4-(Difluoromethyl)-1,3-thiazol-2-yl)methoxy)-1-(2-ethyl-1-methyl-1H-benzimidazol-6-yl)pyridin-2(1H)-one] are 37% and 83%.
The corresponding values for `Cn1c(C2CC2)nc2ccc(-n3ccc(OCc4csc(C5CC5)n4)cc3=O)cc21` [Example 285, 1-(2-Cyclopropyl-1-methyl-1H-benzimidazol-6-yl)-4-((2-cyclopropyl-1,3-thiazol-4-yl)methoxy)pyridin-2(1H)-one] are 36% and 58%.
The corresponding values for `Cc1nc2ccc(-n3ccc(OCc4cc(C(F)(F)F)cs4)cc3=O)cc2n1C` [Example 286, 1-(1,2-Dimethyl-1H-benzimidazol-6-yl)-4-((4-(trifluoromethyl)thiophen-2-yl)methoxy)pyridin-2(1H)-one] are 58% and 100%.
`Cn1c(C2CC2)nc2ccc(-n3ccc(OCc4csc(C(F)F)n4)cc3=O)cc21` [Example 287, 1-(2-Cyclopropyl-1-methyl-1H-benzimidazol-6-yl)-4-((2-(difluoromethyl)-1,3-thiazol-4-yl)methoxy)pyridin-2(^1H)-one]: the inhibition at 0.1 µM stood at 47% in test [1] and 95% on human MCHR1.
With `CCc1nc2ccc(-n3ccc(OCc4csc(C(F)F)n4)cc3=O)cc2n1C` [Example 288, 4-((2-(Difluoromethyl)-1,3-thiazol-4-yl)methoxy)-1-(2-ethyl-1-methyl-1H-benzimidazol-6-yl)pyridin-2(1H)-one], the inhibition at 0.1 µM in test [1] came out at 40%; at human MCHR1, 87%.
On to `Cc1nc2ccc(-n3ccc(OCc4ccccc4)cc3=O)cc2n1C` [Example 289, 4-(Benzyloxy)-1-(1,2-dimethyl-1H-benzimidazol-6-yl)pyridin-2(1H)-one], for which the inhibition at 0.1 µM in test [1] came to 48%; on human MCHR1, 100%.
On to `Cc1c(C2CC2)nc2ccc(-n3ccc(OCc4ccc(F)cn4)cc3=O)cn12` [Example 291, 1-(2-Cyclopropyl-3-methylimidazo[1,2-a]pyridin-6-yl)-4-((5-fluoropyridin-2-yl)methoxy)pyridin-2(1H)-one hydrochloride], for which the figures for the inhibition at 0.1 µM (in test [1]; on human MCHR1) were 47% and 98%, respectively.
